Key:
[1] = biological target: T1, L-type calcium channel (LTCC) (Rattus norvegicus, UniProt P22002); assay: FLIPR calcium mobilization assay for L-type calcium channel; type: cell-based; conditions: calcium mobilization in vitro assay; HEK293 cells stably expressing recombinant rat LTCC subunits (α1c, α2δ, β1), 90 mM KCl
T1 construct: expressed in transfected cells; host or cells: HEK293, stably transfected (pcDNA6.2DEST α1c, pcDNA3.2DEST β1, pcDNA3.1-Zeo α2δ)
Experimental: Recombinant human embryonal kidney cells (HEK293, ATCC) stably transfected with either N-type calcium channel (NTCC) subunits (α1b, α2δ, and β3) or L-type calcium channel (LTCC) subunits (α1c, α2δ, and β1) were routinely cultured in growth medium consisting of Dulbecco's Modified Eagles Medium containing 10% FBS, 100 U/mL penicillin, 100 μg/mL streptomycin, 4 mM L-glutamine, 500 μg/mL geneticin (G418), 20 μg/mL Blasticidin S (InVivogen, San Diego, Calif.) and 500 μg/mL zeocin (InVivogen).
FLIPR Calcium Mobilization Assay for L-type Calcium Channel. One day prior to performing this assay, HEK293 cells stably expressing recombinant rat L-type calcium channel (LTCC) subunits (α1c, α2δ, and β1) were trypsinized, then seeded on poly-D-lysine-coated 96-well clear-bottom black plates (Becton Dickinson, Franklin Lakes, N.J.) at 75,000 cells/well. On the day of the assay, the plates were washed with LTCC wash buffer (127 mM NaCl, 2 mM MgCl2, 700 μM NaH2PO4, 5 mM CaCl2, 5 mM NaHCO3, 8 mM HEPES, 10 mM glucose, pH 7.4), then loaded with 0.1 mL of LTCC wash buffer containing Fluo-4 (3 μM final concentration, Molecular Probes, Eugene, Oreg.). After 1 hour, the cells were washed with 0.1 mL LTCC wash buffer and resuspended in 0.05 mL LTCC assay buffer (same composition as LTCC wash buffer). Plates were then transferred to a FLIPR^96 for assay. The FLIPR measured basal Fluo-4 fluorescence for 15 seconds, then added 0.05 mL of each compound tested diluted in LTCC assay buffer at final concentrations ranging from about 846 pM to about 17 μM. Fluo-4 fluorescence was then measured for 5 minutes. 0.1 mL KCl agonist dissolved in LTCC assay buffer was then added to the cells to produce a final concentration of 90 mM KCl, and fluorescence was measured for another 45 seconds. Data were collected over the entire time course and analyzed using Excel, Graph Pad Prism, or an in-house regression analysis software.

[2] = biological target: T2, N-type calcium channel (NTCC) (Homo sapiens, UniProt Q00975); assay: FLIPR calcium mobilization assay for N-type calcium channel; type: cell-based; conditions: calcium mobilization in vitro assay; differentiated IMR32 cells, 5 μM nitrendipine, 90 mM KCl
T2 construct: host or cells: IMR32 cells differentiated with dibutyryl cyclic AMP and bromodeoxyuridine
Experimental: Cell maintenance and differentiation. Unless noted otherwise, cell culture reagents were purchased from Mediatech of Herndon, Md. IMR32 cells (American Type Culture Collection, ATCC, Manassas, Va.) were routinely cultured in growth medium consisting of minimum essential medium containing 10% fetal bovine serum (FBS, Hyclone, Logan, Utah), 100 U/mL penicillin, 100 μg/mL streptomycin, 2 mM L-glutamine, 1 mM sodium pyruvate, and 1× MEM non-essential amino acids. 80-90% confluent flasks of cells were differentiated using the following differentiation medium: Growth medium plus 1 mM dibutyryl cyclic AMP (Sigma, St. Louis, Mo.), and 2.5 μM bromodeoxyuridine (Sigma). Cells were differentiated for 8 days by replacing differentiation medium every 2-3 days.
FLIPR Calcium Mobilization Assay for N-type Calcium Channel. One day prior to performing this assay, differentiated IMR32 cells were treated with 1× CellStripper, and seeded on poly-D-lysine-coated 96-well clear-bottom black plates (Becton Dickinson, Franklin Lakes, N.J.) at 200,000 cells/well. On the day of the assay, the cell plates were washed with IMR32 buffer (127 mM NaCl, 1 mM KCl, 2 mM MgCl2, 700 μM NaH2PO4, 5 mM CaCl2, 5 mM NaHCO3, 8 mM HEPES, 10 mM glucose, pH 7.4), then pre-stimulated with KCl and loaded as follows: 0.05 mL of IMR32 buffer, 0.05 mL of each compound tested diluted in IMR32 buffer containing 20 μM nitrendipine (Sigma), and 0.1 mL KCl dissolved in IMR32 buffer, plus Fluo-4 were added (3 μM final concentration, Molecular Probes, Eugene, Oreg.). Final test compound concentrations ranged from about 846 pM to about 17 μM, final nitrendipine concentration was 5 μM, and final KCl concentration was 90 mM. After 1 hour, the cells were washed twice with 0.05 mL of each compound tested in nitrendipine-containing IMR32 buffer (no KCl or Fluo-4), and then replaced with 0.1 mL of each compound tested in nitrendipine-containing IMR32 buffer. Plates were then transferred to a Fluorimetric Imaging Plate Reader (FLIPR^96, Molecular Devices, Inc., Sunnyvale, Calif.) for assay. The FLIPR measured basal Fluo-4 fluorescence for 315 seconds (i.e., 5 minutes and 15 seconds), then added 0.1 mL KCl agonist dissolved in IMR32 buffer and measured fluorescence for another 45 seconds. Final test compound concentrations on the cells after FLIPR read ranged from about 846 pM to about 17 μM, final nitrendipine concentration was 5 μM, and final KCl concentration was 90 mM. Data were collected over the entire time course and analyzed using Excel, Graph Pad Prism (version 3.02, Graph Pad, San Diego, Calif.), or an in-house non-linear regression analysis software.

T1 sequence (P22002 whole entry): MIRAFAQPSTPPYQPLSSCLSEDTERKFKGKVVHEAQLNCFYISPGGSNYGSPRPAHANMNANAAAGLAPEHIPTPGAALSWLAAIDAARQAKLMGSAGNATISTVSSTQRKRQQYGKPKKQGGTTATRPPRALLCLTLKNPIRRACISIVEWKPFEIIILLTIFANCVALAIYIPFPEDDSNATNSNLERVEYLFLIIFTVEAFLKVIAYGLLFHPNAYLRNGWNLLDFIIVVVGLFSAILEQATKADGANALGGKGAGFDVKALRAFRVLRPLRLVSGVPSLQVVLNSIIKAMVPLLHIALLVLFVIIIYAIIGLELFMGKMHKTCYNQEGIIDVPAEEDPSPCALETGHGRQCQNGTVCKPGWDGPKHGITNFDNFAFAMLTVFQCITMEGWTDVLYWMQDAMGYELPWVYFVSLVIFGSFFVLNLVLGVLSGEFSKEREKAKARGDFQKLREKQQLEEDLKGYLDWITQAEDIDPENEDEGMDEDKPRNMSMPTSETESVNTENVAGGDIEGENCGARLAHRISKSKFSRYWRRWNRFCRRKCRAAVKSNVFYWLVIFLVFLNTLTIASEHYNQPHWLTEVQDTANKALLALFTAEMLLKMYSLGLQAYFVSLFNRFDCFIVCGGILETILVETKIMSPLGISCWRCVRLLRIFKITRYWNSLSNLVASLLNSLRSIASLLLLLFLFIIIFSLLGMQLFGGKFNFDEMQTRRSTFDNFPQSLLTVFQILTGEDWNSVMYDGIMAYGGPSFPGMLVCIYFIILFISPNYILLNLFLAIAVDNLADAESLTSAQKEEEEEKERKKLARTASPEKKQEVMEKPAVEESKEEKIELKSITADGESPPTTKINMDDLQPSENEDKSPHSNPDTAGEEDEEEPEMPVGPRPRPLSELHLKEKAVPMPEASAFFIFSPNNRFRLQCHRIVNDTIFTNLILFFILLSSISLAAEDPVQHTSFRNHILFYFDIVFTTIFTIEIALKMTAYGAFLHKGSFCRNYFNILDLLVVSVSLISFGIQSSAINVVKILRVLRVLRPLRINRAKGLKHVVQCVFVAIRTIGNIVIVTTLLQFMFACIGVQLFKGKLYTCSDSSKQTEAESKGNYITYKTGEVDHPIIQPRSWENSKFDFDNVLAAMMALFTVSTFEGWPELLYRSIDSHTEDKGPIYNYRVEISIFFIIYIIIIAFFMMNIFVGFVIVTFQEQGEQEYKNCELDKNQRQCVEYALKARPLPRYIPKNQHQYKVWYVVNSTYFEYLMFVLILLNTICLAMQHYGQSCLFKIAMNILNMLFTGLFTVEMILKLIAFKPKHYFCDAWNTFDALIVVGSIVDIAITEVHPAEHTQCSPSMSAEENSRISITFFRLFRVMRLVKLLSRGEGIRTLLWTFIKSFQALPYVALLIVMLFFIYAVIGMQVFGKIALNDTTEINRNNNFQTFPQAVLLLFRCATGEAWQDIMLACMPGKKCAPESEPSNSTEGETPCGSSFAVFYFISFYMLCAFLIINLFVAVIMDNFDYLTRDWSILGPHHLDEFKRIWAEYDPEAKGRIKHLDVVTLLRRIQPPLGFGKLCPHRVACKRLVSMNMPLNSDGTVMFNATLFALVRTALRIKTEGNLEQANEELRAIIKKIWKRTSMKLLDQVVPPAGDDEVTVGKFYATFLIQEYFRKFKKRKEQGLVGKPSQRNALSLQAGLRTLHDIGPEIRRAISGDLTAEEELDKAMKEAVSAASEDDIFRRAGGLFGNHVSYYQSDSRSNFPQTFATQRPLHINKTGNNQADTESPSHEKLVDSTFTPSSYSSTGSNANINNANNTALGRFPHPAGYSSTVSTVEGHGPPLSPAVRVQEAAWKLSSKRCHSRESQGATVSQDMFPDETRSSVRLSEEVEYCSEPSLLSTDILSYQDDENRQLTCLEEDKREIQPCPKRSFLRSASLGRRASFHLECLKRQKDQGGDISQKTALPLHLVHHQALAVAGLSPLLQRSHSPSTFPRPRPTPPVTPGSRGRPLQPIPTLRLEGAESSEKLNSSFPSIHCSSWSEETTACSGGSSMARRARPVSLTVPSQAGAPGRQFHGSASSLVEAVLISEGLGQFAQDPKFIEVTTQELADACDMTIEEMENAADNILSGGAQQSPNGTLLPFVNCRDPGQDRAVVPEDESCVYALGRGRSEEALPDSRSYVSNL
T1 sequence (P54290 25-944 partner limits assumed): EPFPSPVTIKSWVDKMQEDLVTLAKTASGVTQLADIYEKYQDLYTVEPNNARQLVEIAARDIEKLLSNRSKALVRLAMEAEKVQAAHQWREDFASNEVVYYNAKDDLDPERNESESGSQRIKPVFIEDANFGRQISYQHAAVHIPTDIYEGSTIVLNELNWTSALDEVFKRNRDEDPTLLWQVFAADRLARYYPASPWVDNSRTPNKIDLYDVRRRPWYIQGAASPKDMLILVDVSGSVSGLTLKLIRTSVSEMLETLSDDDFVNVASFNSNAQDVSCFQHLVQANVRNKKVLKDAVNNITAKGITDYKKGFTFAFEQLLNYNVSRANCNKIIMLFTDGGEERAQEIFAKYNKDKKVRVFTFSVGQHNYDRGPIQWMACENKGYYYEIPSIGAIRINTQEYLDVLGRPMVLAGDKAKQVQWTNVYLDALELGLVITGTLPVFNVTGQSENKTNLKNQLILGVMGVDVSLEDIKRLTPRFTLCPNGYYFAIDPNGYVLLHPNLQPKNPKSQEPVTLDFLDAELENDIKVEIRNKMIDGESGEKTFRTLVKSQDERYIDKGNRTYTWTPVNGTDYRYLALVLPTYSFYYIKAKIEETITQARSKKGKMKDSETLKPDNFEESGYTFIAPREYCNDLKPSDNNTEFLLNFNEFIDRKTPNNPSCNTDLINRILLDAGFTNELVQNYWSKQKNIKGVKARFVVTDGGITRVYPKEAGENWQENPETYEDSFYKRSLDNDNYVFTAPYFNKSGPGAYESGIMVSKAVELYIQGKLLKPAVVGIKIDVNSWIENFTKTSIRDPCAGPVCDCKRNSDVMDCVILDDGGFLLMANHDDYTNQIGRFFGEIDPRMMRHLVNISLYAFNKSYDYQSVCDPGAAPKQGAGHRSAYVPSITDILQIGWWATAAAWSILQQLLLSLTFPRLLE
T1 sequence (P54290 945-1091 partner limits assumed): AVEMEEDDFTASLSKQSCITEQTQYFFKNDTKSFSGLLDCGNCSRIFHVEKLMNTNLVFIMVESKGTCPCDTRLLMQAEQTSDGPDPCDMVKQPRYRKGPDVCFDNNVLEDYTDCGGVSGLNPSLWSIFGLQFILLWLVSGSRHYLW
T1 sequence (P54283 whole entry partner): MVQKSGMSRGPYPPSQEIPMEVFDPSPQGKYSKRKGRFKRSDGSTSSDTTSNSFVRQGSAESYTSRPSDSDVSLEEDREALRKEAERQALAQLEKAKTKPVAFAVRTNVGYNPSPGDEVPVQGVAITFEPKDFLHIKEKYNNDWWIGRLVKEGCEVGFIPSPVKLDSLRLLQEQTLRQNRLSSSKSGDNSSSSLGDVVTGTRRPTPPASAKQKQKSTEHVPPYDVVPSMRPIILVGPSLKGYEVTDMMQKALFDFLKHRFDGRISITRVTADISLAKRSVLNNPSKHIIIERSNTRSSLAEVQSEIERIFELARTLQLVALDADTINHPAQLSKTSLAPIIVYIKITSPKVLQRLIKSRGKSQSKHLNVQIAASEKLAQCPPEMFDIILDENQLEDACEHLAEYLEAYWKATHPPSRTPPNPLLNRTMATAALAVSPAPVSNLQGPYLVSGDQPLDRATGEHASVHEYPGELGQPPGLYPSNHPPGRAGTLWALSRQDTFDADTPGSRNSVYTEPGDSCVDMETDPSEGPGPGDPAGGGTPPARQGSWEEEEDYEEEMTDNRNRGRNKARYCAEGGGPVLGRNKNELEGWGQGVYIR

In the case of `O=C(CON=C1CCN(S(=O)(=O)c2ccc(OC(F)(F)F)cc2)CC1)Nc1ccccc1` [Example 2, N-Phenyl-2-[1-(4-trifluoromethoxybenzenesulfonyl)piperidin-4-ylideneaminooxy]acetamide], the IC50 [1] is reported as > 20000 nM and the IC50 [2] is reported as 420 nM.
Compound `CN(C(=O)CON=C1CCN(S(=O)(=O)c2ccc(OC(F)(F)F)cc2)CC1)c1ccccc1` [Example 3, N-Methyl-N-phenyl-2-[1-(4-trifluoromethoxybenzenesulfonyl)piperidin-4-ylideneaminooxy]acetamide] has an IC50 [1] of 8500 nM and an IC50 [2] of 1200 nM.
For `O=C(CON=C1CCN(S(=O)(=O)c2ccc(OC(F)(F)F)cc2)CC1)NCc1ccccc1` [Example 98, N-Benzyl-2-[1-(4-trifluoromethoxybenzenesulfonyl)piperidin-4-ylideneaminooxy]acetamide], the IC50 [1] was > 20000 nM and the IC50 [2] was 1100 nM.
For `CC(C)CNC(=O)CON=C1CCN(S(=O)(=O)c2ccc(OC(F)(F)F)cc2)CC1` [Example 99, N-Isobutyl-2-[1-(4-trifluoromethoxybenzenesulfonyl)piperidin-4-ylideneaminooxy]acetamide], the IC50 [1] was > 20000 nM and the IC50 [2] was 300 nM.
For `O=C(CON=C1CCN(S(=O)(=O)c2ccc(OC(F)(F)F)cc2)CC1)NC1CCCCC1` [Example 100, N-Cyclohexyl-2-[1-(4-trifluoromethoxybenzenesulfonyl)piperidin-4-ylideneaminooxy]acetamide], the IC50 [1] was > 20000 nM and the IC50 [2] was 410 nM.
With `CCCNC(=O)CON=C1CCN(S(=O)(=O)c2ccc(OC(F)(F)F)cc2)CC1` [Example 102, N-Propyl-2-[1-(4-trifluoromethoxybenzenesulfonyl)piperidin-4-ylideneaminooxy]acetamide] the IC50 [1] was > 20000 nM and the IC50 [2] was 210 nM.
`O=C(Nc1ccc(F)cc1)ON=C1CCN(S(=O)(=O)c2cccc(C(F)(F)F)c2)CC1` [Example 104, 1-(3-(trifluoromethyl)phenylsulfonyl)piperidin-4-one O-4-fluorophenylcarbamoyl oxime] was tested, and the IC50 [1] was > 20000 nM and the IC50 [2] was 240 nM.
With `O=C(Nc1ccc(F)cc1)ON=C1CCN(C(=O)Oc2cccc(C(F)(F)F)c2)CC1` [Example 131, 3-(trifluoromethyl)phenyl 4-(4-fluorophenylcarbamoyloxyimino)piperidine-1-carboxylate] the IC50 [2] was 1800 nM.
